# ChEMBL document CHEMBL1141727, “Isolation and cytotoxic evaluation of marine sponge-derived norterpene peroxides” (J Nat Prod, 1998)
# Columns and labels:
# [1] = tested on: OVCAR-3; test: Growth inhibition of human OVCAR-3 cells; assay type: functional
# [2] = tested on: NCI-H460; test: Growth inhibition of human NCI-H460 cells; assay type: functional
# [3] = tested on: Malme-3M; test: Growth inhibition of human MALME-3M cells; assay type: functional
# [4] = tested on: MC-38; test: Growth inhibition of mouse C38 cells assessed as zone units at 50 ug/disk by disk diffusion agar colony formation assay; assay type: functional
# [5] = tested on: U-251; test: Growth inhibition of human U251 cells; assay type: functional
# [6] = tested on: KM12; test: Growth inhibition of human KM12 cells; assay type: functional
# [7] = tested on: UACC-62; test: Growth inhibition of human UACC62 cells; assay type: functional
# [8] = tested on: SN12C; test: Growth inhibition of human SN12C cells; assay type: functional
# [9] = tested on: RXF 393; test: Growth inhibition of human […] cells; assay type: functional
# [10] = tested on: OVCAR-4; test: Growth inhibition of human OVCAR4 cells; assay type: functional
# [11] = tested on: T47D; test: Growth inhibition of human T47D cells; assay type: functional
# [12] = tested on: M14; test: Growth inhibition of human M14 cells; assay type: functional
# [13] = tested on: SNB-19; test: Growth inhibition of human SNB19 cells; assay type: functional
# [14] = tested on: HOP-92; test: Growth inhibition of human HOP92 cells; assay type: functional
# [15] = tested on: HT-29; test: Growth inhibition of human HT-29 cells; assay type: functional
# [16] = tested on: HOP-62; test: Growth inhibition of human HOP62 cells; assay type: functional
# [17] = tested on: HCT-15; test: Growth inhibition of human HCT15 cells; assay type: functional
# [18] = tested on: Mus musculus; test: Toxicity in mouse at 424 mg/kg, iv in split dose; assay type: organism-based; design: dose 424 mg/kg, route intravenous; conditions: in vivo
# [19] = tested on: SNB-75; test: Growth inhibition of human SNB75 cells; assay type: functional
# [20] = tested on: SK-MEL-5; test: Growth inhibition of human SK-MEL-5 cells; assay type: functional
# [21] = tested on: BT-549; test: Growth inhibition of human BT549 cells; assay type: functional
# [22] = tested on: MCF7; test: Growth inhibition of human MCF7 cells; assay type: functional
# [23] = tested on: UO-31; test: Growth inhibition of human UO31 cells; assay type: functional
# [24] = tested on: SW-620; test: Growth inhibition of human SW620 cells; assay type: functional
# [25] = tested on: NCI-H322M; test: Growth inhibition of human NCI-H322M cells; assay type: functional
# [26] = tested on: LOX IMVI; test: Growth inhibition of human LOXIMVI cells; assay type: functional
# [27] = tested on: COLO 205; test: Growth inhibition of human COLO205 cells; assay type: functional
# [28] = tested on: OVCAR-8; test: Growth inhibition of human OVCAR8 cells; assay type: functional
# [29] = tested on: HCT-116; test: Growth inhibition of human HCT116 cells; assay type: functional
# [30] = tested on: K562; test: Growth inhibition of human K562 cells; assay type: functional
# [31] = tested on: A549; test: Growth inhibition of human A549 cells; assay type: functional
# [32] = tested on: DU-145; test: Growth inhibition of human DU145 cells; assay type: functional
# [33] = tested on: SK-MEL-2; test: Growth inhibition of human SK-MEL-2 cells; assay type: functional
# [34] = tested on: SF-268; test: Growth inhibition of human SF268 cells; assay type: functional
# [35] = Growth inhibition of human Hs 578T cells; assay type: functional
# [36] = Growth inhibition of human MCF7/ADR resistant cells; assay type: functional; conditions: NCI/ADR-RES
# [37] = tested on: 786-0; test: Growth inhibition of human 786-0 cells; assay type: functional
# [38] = tested on: PC-3; test: Growth inhibition of human PC3 cells; assay type: functional
# [39] = tested on: ACHN; test: Growth inhibition of human ACHN cells; assay type: functional
# [40] = tested on: OVCAR-5; test: Growth inhibition of human OVCAR5 cells; assay type: functional
# [41] = tested on: UACC-257; test: Growth inhibition of human UACC257 cells; assay type: functional
# [42] = tested on: HCC 2998; test: Growth inhibition of human HCC2998 cells; assay type: functional
# [43] = tested on: CCRF-CEM; test: Growth inhibition of human CCRF-CEM cells; assay type: functional
# [44] = tested on: TK-10; test: Growth inhibition of human TK10 cells; assay type: functional
# [45] = tested on: MDA-MB-231; test: Growth inhibition of human MDA-MB-231 cells; assay type: functional
# [46] = tested on: CX-1; test: Growth inhibition of human CX-1 cells assessed as zone units at 50 ug/disk by disk diffusion agar colony formation assay; assay type: functional
# [47] = tested on: EKVX; test: Growth inhibition of human EKVX cells; assay type: functional
# [48] = tested on: MOLT-4; test: Growth inhibition of human MOLT4 cells; assay type: functional
# [49] = tested on: MDA-N; test: Growth inhibition of human MDA-N cells; assay type: functional
# [50] = Growth inhibition of mouse M17/ADR cells assessed as zone units at 50 ug/disk by disk diffusion agar colony formation assay; assay type: functional
# [51] = tested on: SK-MEL-28; test: Growth inhibition of human SK-MEL-28 cells; assay type: functional
# [52] = Growth inhibition of human […] cells; assay type: functional
# [53] = tested on: SK-OV-3; test: Growth inhibition of human SKOV3 cells; assay type: functional
# [54] = tested on: HL-60(TB); test: Growth inhibition of human HL-60(TB) cells; assay type: functional
# [55] = tested on: SF-295; test: Growth inhibition of human SF295 cells; assay type: functional
# [56] = tested on: SR; test: Growth inhibition of human SR cells; assay type: functional
# [57] = tested on: MDA-MB-435; test: Growth inhibition of human MDA-MB-435 cells; assay type: functional
# [58] = tested on: IGROV-1; test: Growth inhibition of human IGROV1 cells; assay type: functional
# [59] = tested on: NCI-H23; test: Growth inhibition of human NCI-H23 cells; assay type: functional
# [60] = tested on: P388; test: Growth inhibition of mouse P388 cells assessed as zone units at 50 ug/disk by disk diffusion agar colony formation assay; assay type: functional
# [61] = tested on: NCI-H522; test: Growth inhibition of human NCI-H522 cells; assay type: functional
# [62] = tested on: L1210; test: Growth inhibition of mouse L1210 cells assessed as zone units at 50 ug/disk by disk diffusion agar colony formation assay; assay type: functional
# [63] = tested on: CAKI-1; test: Growth inhibition of human Caki1 cells; assay type: functional
# [64] = tested on: SF-539; test: Growth inhibition of human SF539 cells; assay type: functional
# [65] = Growth inhibition of human H125 cells assessed as zone units at 50 ug/disk by disk diffusion agar colony formation assay; assay type: functional
# [66] = tested on: A498; test: Growth inhibition of human A498 cells; assay type: functional
# [67] = tested on: NCI-H226; test: Growth inhibition of human NCI-H226 cells; assay type: functional
structure (smiles),measurement,setting,value
COC(=O)[C@H](C)[C@H]1CC[C@@](C)(CCC2=C(C)CCCC2(C)C)OO1 [NUAPAPUIN A METHYL ESTER],GI50,[1],> 25 µM
same,GI50,[2],> 25 µM
same,GI50,[3],> 25 µM
same,Activity,[4],700 Zone units
same,GI50,[5],> 25 µM
same,GI50,[6],> 5 µM
same,GI50,[7],> 25 µM
same,GI50,[8],> 25 µM
same,GI50,[9],> 25 µM
same,GI50,[10],> 25 µM
same,GI50,[11],> 25 µM
same,GI50,[12],> 25 µM
same,GI50,[13],> 25 µM
same,GI50,[14],> 25 µM
same,GI50,[15],> 25 µM
same,GI50,[16],> 25 µM
same,GI50,[17],> 25 µM
same,Activity,[18],Non-toxic
same,GI50,[19],> 25 µM
same,GI50,[20],> 25 µM
same,GI50,[21],> 5 µM
same,GI50,[22],> 25 µM
same,GI50,[23],> 23.7 µM
same,GI50,[24],> 25 µM
same,GI50,[25],> 25 µM
same,GI50,[26],> 5 µM
same,GI50,[27],> 25 µM
same,GI50,[28],> 25 µM
same,GI50,[29],> 25 µM
same,GI50,[30],14.3 µM
same,GI50,[31],> 5 µM
same,GI50,[32],> 25 µM
same,GI50,[33],> 25 µM
same,GI50,[34],> 25 µM
same,GI50,[35],> 25 µM
same,GI50,[36],> 25 µM
same,GI50,[37],> 25 µM
same,GI50,[38],> 25 µM
same,GI50,[39],25 µM
same,GI50,[40],> 25 µM
same,GI50,[41],> 25 µM
same,GI50,[42],> 25 µM
same,GI50,[43],19.4 µM
same,GI50,[44],> 25 µM
same,GI50,[45],> 25 µM
same,Activity,[46],310 Zone units
same,GI50,[47],> 25 µM
same,GI50,[48],> 5 µM
same,GI50,[49],> 25 µM
same,Activity,[50],400 Zone units
same,GI50,[51],> 25 µM
same,GI50,[52],> 25 µM
same,GI50,[53],> 25 µM
same,GI50,[54],> 5 µM
same,GI50,[55],> 25 µM
same,GI50,[56],> 25 µM
same,GI50,[57],> 25 µM
same,GI50,[58],> 5 µM
same,GI50,[59],> 25 µM
same,Activity,[60],400 Zone units
same,GI50,[61],> 16.1 µM
same,Activity,[62],400 Zone units
same,GI50,[63],> 25 µM
same,GI50,[64],> 25 µM
C=C1CCCC(C)(C)C1CC[C@]1(C)CC[C@H]([C@@H](C)C(=O)OC)OO1 (some centres undefined) [NUAPAPUIN B],GI50,[1],21.8 µM
same,GI50,[2],0.91 µM
same,GI50,[3],21 µM
same,Activity,[4],300 Zone units
same,GI50,[5],2.91 µM
same,GI50,[6],0.4 µM
same,GI50,[7],4.13 µM
same,GI50,[8],3.73 µM
same,Activity,[65],200 Zone units
same,GI50,[9],2.62 µM
same,GI50,[10],4.01 µM
same,GI50,[11],2.94 µM
same,GI50,[12],6.43 µM
same,GI50,[13],5.47 µM
same,GI50,[14],0.76 µM
same,GI50,[15],0.38 µM
same,GI50,[16],0.71 µM
same,GI50,[17],13.1 µM
same,GI50,[19],2.67 µM
same,GI50,[20],3.94 µM
same,GI50,[21],4.95 µM
same,GI50,[22],18.4 µM
same,GI50,[23],0.52 µM
same,GI50,[24],7.53 µM
same,GI50,[25],6.9 µM
same,GI50,[26],0.47 µM
same,GI50,[66],4.92 µM
same,GI50,[27],4.54 µM
same,GI50,[28],5.76 µM
same,GI50,[29],8.14 µM
same,GI50,[30],6.38 µM
same,GI50,[31],0.64 µM
same,GI50,[32],3.67 µM
same,GI50,[33],8.28 µM
same,GI50,[34],3.19 µM
same,GI50,[35],4.6 µM
same,GI50,[36],5.67 µM
same,GI50,[37],0.27 µM
same,GI50,[38],3.63 µM
same,GI50,[67],6.17 µM
same,GI50,[39],0.48 µM
same,GI50,[40],4.76 µM
same,GI50,[41],16.3 µM
same,GI50,[42],3.68 µM
same,GI50,[43],1.27 µM
same,GI50,[44],4.21 µM
same,GI50,[45],757 µM
same,GI50,[47],7.9 µM
same,GI50,[48],7.04 µM
same,GI50,[49],3.54 µM
same,Activity,[50],100 Zone units
same,GI50,[51],20.6 µM
same,GI50,[52],4.04 µM
same,GI50,[53],4.4 µM
same,GI50,[54],1.6 µM
same,GI50,[55],4.42 µM
same,GI50,[56],2.17 µM
same,GI50,[57],4.34 µM
same,GI50,[58],0.5 µM
same,GI50,[59],3.54 µM
same,Activity,[60],180 Zone units
same,GI50,[61],3.05 µM
same,Activity,[62],180 Zone units
same,GI50,[63],0.32 µM
same,GI50,[64],6.25 µM
